Experimental data from publication PMC4503722, “Novel Phenotypic Outcomes Identified for a Public Collection of Approved Drugs from a Publicly Accessible Panel of Assays” (PLoS ONE, 2015).
Where two headings read alike, the source gives them in different places.

Experiments:
[1] = test system: HCT116 cells treated with a GSK3β inhibitor; test: cells; assay type: cell-based; conditions: assay number 26, GSK3b inhibitor pretreated
[2] = test system: Colo320; test: cells; assay type: cell-based
[3] = test system: HT-29; test: cells; assay type: cell-based
[4] = test system: HCT116; test: cells; assay type: cell-based
[5] = test system: HeLa cells; test: cells; assay type: cell-based
[6] = test system: DLD-1; test: cells; assay type: cell-based
[7] = test system: SNU-C1; test: cells; assay type: cell-based
[8] = test system: RKO; test: cells; assay type: cell-based
[9] = test system: SW480; test: cells; assay type: cell-based
[10] = test system: ECFC/ADSC co-culture cell nuclei number
[11] = test system: endothelial tube formation in co-cultures of ECFCs and ADSCs treated with VEGF; test: cells; assay type: cell-based, human

Row | SMILES | GSK3b inh pretreated_Viability ATP HCT116 IC50/EC50 [1] [µM] | Basal_Viability ATP Colo 320 IC50/EC50 ([2]; assay number 27, basal) [µM] | Basal_Viability ATP HT-29 IC50/EC50 ([3]; assay number 28, basal) [µM] | Basal_Viability ATP HCT116 IC50/EC50 ([4]; assay number 25, basal) [µM] | Basal_Viability ATP DLD-1 IC50/EC50 ([6]; assay number 23, basal) [µM] | Basal_Viability ATP SNU-C1 IC50/EC50 ([7]; assay number 30, basal) [µM] | Basal_Viability ATP RKO IC50/EC50 ([8]; assay number 29, basal) [µM] | Basal_Viability ATP SW480 IC50/EC50 ([9]; assay number 24, basal) [µM] | other results
1 | Nc1nc(Cl)nc2c1ncn2[C@@H]1O[C@H](CO)[C@@H](O)[C@@H]1F [NCGC00164553-02] | 0.001 | > 20 | > 20 | 0.001 | 0.1636 | > 20 | 0.001 |  | Hela CellCycMod PI 2N IC50/EC50 ([5]; assay number 14, 2N): > 10 µM; Hela CellCycMod PI S Phase IC50/EC50 ([5]; assay number 15, S phase): > 10 µM; Hela CellCycMod PI 4N IC50/EC50 ([5]; assay number 16, 4N): > 10 µM; Hela CellCycMod PI MI IC50/EC50 ([5]; assay number 17, MI): > 10 µM; Hela CellCycMod PI Cell Number IC50/EC50 ([5]; assay number 18, cell number): 5.16 nM
2 | CCCCCCCCCCCCCCCCC(C(=O)O)C(O)(CC(=O)O)C(=O)O (centres unmarked) [NCGC00167547-02] | 4.3382 | 1.3621 | 4.0996 | 8.6847 | 4.2832 | 1.3613 | 3.4822 | 1.1952 | 
3 | Cc1ccc(C(=O)c2cc(O)c(O)c([N+](=O)[O-])c2)cc1 [NCGC00181767-03] | 0.265 | 2.503 | > 20 | 2.292 | 6.142 | 4.536 | 1.876 | 4.644 | 
4 | O=C(Nc1ccc(Cl)cc1)Nc1ccc(Cl)c(C(F)(F)F)c1 [NCGC00185743-02] |  |  |  |  |  |  |  |  | IC50 ([1]; read-out: GSK3b inh pretreated_Viability ATP HCT116 summarized IC50): 3 nM; IC50 ([2]; assay number 27, basal, read-out: Basal_Viability ATP Colo 320 summarized IC50): 3 nM; IC50 ([3]; assay number 28, basal, read-out: Basal_Viability ATP HT-29 summarized IC50): 1 nM; IC50 ([9]; assay number 24, basal, read-out: Basal_Viability ATP SW480 summarized IC50): 9 nM; IC50 ([4]; assay number 25, basal, read-out: Basal_Viability ATP HCT116 summarized IC50): 3 nM; IC50 ([6]; assay number 23, basal, read-out: Basal_Viability ATP DLD-1 summarized IC50): 27 nM; IC50 ([7]; assay number 30, basal, read-out: Basal_Viability ATP SNU-C1 summarized IC50): 9 nM; IC50 ([8]; assay number 29, basal, read-out: Basal_Viability ATP RKO summarized IC50): 3 nM
5 | C/C(=C(/OCCOc1ccc(Cl)cc1)c1ccc(Cl)cc1Cl)n1ccnc1 [NCGC00249921-01] |  |  |  |  |  |  |  |  | VEGF_ADSC\ECFC Angio Hoechst NucArea IC50/EC50 [10]: 9.416 µM; Basal_Viability ATP Colo 320 IC50/EC50 [2]: 5.8551 µM; Basal_Viability ATP HT-29 IC50/EC50 [3]: > 6.667 µM; Basal_Viability ATP SW480 IC50/EC50 [9]: 8.4611 µM; Basal_Viability ATP HCT116 IC50/EC50 [4]: > 6.6667 µM; VEGF_ADSC\ECFC Angio CD31 TubeArea IC50/EC50 [11]: 5.8398 µM; Basal_Viability ATP DLD-1 IC50/EC50 [6]: 4.1804 µM; Basal_Viability ATP SNU-C1 IC50/EC50 [7]: 2.3457 µM; Basal_Viability ATP RKO IC50/EC50 [8]: > 6.6667 µM
6 | CN(C)[C@@H](CCOc1cccc2ccccc12)c1ccccc1 [NCGC00253658-01] | 9.8615 |  |  | > 20 |  |  |  |  | Basal_Viability ATP Colo 320 IC50/EC50 ([2]; assay number 27): > 20 µM; Basal_Viability ATP HT-29 IC50/EC50 ([3]; assay number 28): > 20 µM; Basal_Viability ATP SW480 IC50/EC50 ([9]; assay number 24): > 20 µM; Basal_Viability ATP DLD-1 IC50/EC50 ([6]; assay number 23): > 20 µM; Basal_Viability ATP SNU-C1 IC50/EC50 ([7]; assay number 30): 12.8035 µM; Basal_Viability ATP RKO IC50/EC50 ([8]; assay number 29): 8.1098 µM
7 | O=C(O)C1(C(=O)O)CCC1.[NH2-].[NH2-].[Pt+2] [NCGC00263858-02] |  | > 20 | > 20 | > 20 | > 20 | > 20 | > 20 | > 20 | VEGF_ADSC\ECFC Angio Hoechst NucArea IC50/EC50 [10]: > 10 µM; VEGF_ADSC\ECFC Angio CD31 TubeArea IC50/EC50 [11]: > 10 µM
8 | C=Cc1c(C)c2cc3nc(cc4[nH]c(cc5nc(cc1[nH]2)C(C)=C5CCC(=O)O)c(CCC(=O)OC)c4C)[C@@]1(C)C3=CC=C(C(=O)OC)[C@@H]1C(=O)OC [NCGC00344558-01] | 4.2601 | 9.6205 | 3.9401 | 5.6514 |  | 5.854 | 3.5296 | > 6.667 | 
9 | Cc1cc2nc3c(=O)[nH]c(=O)nc-3n(C[C@H](O)[C@H](O)[C@H](O)COP(=O)([O-])OP(=O)([O-])OC[C@H]3O[C@@H](n4cnc5c(N)ncnc54)[C@H](O)[C@H]3O)c2cc1C.O.[Na+].[Na+] [NCGC00344578-01] | > 20 | > 20 | > 20 | > 20 | > 20 | > 20 | > 20 | > 20 | 
